# According to patent US20050009925A1, “Use of norepinephrine reuptake inhibitors for the treatment of cognitive failure” (priority 2001, published 2005):
# Tested on: c-fos
# Assay: c-fos activation (Fos-like immunoreactivity) in rat brain after atomoxetine
# Format: in vivo
# Conditions: rats, 3 mg/kg i.p., two hours after administration
# Method: The immediate-early gene, c-fos, and its protein products have been increasingly utilized as markers for neuronal activation (Dragunow and Faull, J. Neurosci. Methods, 29, 261-265 (1989); Morgan and Curran, Prog. In Brain Res., 86, 287-294 (1990); Robertson, et al., J. Pharmacol. Exp. Ther., 271, 1058-1066 (1994)). C-fos activation is measured as illustrated below for atomoxetine.
# Two hours after administration of atomoxetine (3 mg/kg, i.p.), the rats were deeply anesthetized with sodium pentobarbital (60 mg/kg, i.p.) and transcardially perfused with 100 ml of phosphate buffered saline (PBS) followed by 100 ml of 4% paraformaldehyde in PBS. The brain was rapidly removed, postfixed for 90 min in 4% paraformaldehyde and then was transferred to 30% sucrose at […] until saturated. After quick freezing, serial 30 μm sections were cut and placed in PBS until processed for immunohistochemistry. In brief, sections were incubated in PBS containing blocking serum and 0.5% Triton-X 100 for 1 hour. Sections were then incubated with anti-Fos antibody (Santa Cruz Biotechnology, Inc.) at 4° C. overnight. Visualization of the Fos-like immunoreactivity was performed with a Vectastain ABC Elite Kit (Vector Labs, Burlingame, Calif.) using the standard protocol supplied with the kit. Nickel-intensified diaminobenzidine (DAB) was used as the chromagen to yield a gray-black precipitation product. Following visualization of the Fos immunoreactivity, the sections were mounted on gelatin-coated glass slides and allowed to dry. The sections were then dehydrated and cover slipped. Fos expressing cells were quantitated using the MCID M2 imaging system (Imaging Research, St. Catherines, Ontario).
compound,measurement,setting,value
"CNCC[C@@H](Oc1ccccc1C)c1ccccc1 [Atomoxetine, (R)-(−)-N-methyl-3-(2-methylphenoxy)-3-phenylpropylamine]","Fos positive cells, Nucleus Accumbens",nucleus accumbens,152 ± 44 Fos positive cells/mm^2
same,"Fos positive cells, Prefrontal Cortex",prefrontal cortex,296 ± 26 Fos positive cells/mm^2
same,"Fos positive cells, Striatum",striatum,102 ± 35 Fos positive cells/mm^2
same,"expression of c-fos (regional pattern, in words)",summary of the table,increased the expression of c-fos only in the cortical areas
